Source: ChEMBL document CHEMBL5252635, “The Mycobacterium tuberculosis mycothiol S-transferase is divalent metal-dependent for mycothiol binding and transfer” (2023)

Experiments:
[1] = target: T1, Conserved protein (Mycobacterium tuberculosis) (UniProt O53728)
T1 sequence (whole entry): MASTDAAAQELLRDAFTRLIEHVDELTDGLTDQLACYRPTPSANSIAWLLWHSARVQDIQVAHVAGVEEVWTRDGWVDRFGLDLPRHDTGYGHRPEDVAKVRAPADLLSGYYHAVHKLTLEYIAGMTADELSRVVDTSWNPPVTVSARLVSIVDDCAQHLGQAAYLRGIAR
Description: Binding affinity to Mycobacterium tuberculosis MST assessed as change in melting temperature in presence of nickle by differential scanning fluorimetry method

[2] = target: T1, Conserved protein (Mycobacterium tuberculosis); remark: listed apart in the source
Description: Binding affinity to Mycobacterium tuberculosis MST assessed as melting temperature by differential scanning fluorimetry method

[3] = target: T1, Conserved protein (Mycobacterium tuberculosis); remark: listed apart in the source
Description: Binding affinity to Mycobacterium tuberculosis MST assessed as change in melting temperature in presence of cobalt by differential scanning fluorimetry method

[4] = target: T1, Conserved protein (Mycobacterium tuberculosis); remark: listed apart in the source
Description: Binding affinity to Mycobacterium tuberculosis MST assessed as melting temperature in presence of nickle by differential scanning fluorimetry method

[5] = target: T1, Conserved protein (Mycobacterium tuberculosis); remark: listed apart in the source
Description: Binding affinity to Mycobacterium tuberculosis MST assessed as change in melting temperature in presence of zinc by differential scanning fluorimetry method

[6] = target: T1, Conserved protein (Mycobacterium tuberculosis); remark: listed apart in the source
Description: Binding affinity to Mycobacterium tuberculosis MST assessed as change in melting temperature in presence of ferrous by differential scanning fluorimetry method

[7] = target: T1, Conserved protein (Mycobacterium tuberculosis); remark: listed apart in the source
Description: Binding affinity to Mycobacterium tuberculosis MST assessed as melting temperature in presence of ferrous by differential scanning fluorimetry method

[8] = target: T1, Conserved protein (Mycobacterium tuberculosis); remark: listed apart in the source
Description: Binding affinity to Mycobacterium tuberculosis MST assessed as melting temperature in presence of cobalt by differential scanning fluorimetry method

[9] = target: T1, Conserved protein (Mycobacterium tuberculosis); remark: listed apart in the source
Description: Binding affinity to Mycobacterium tuberculosis MST assessed as melting temperature in presence of zinc by differential scanning fluorimetry method

Structure (SMILES): CC(=O)N[C@@H](CS)C(=O)N[C@H]1[C@@H](O[C@@H]2[C@H](O)[C@H](O)[C@@H](O)[C@H](O)[C@H]2O)O[C@H](CO)[C@@H](O)[C@@H]1O
- ΔTm [1]: 9.9 °C
- Tm [2]: 59 °C
- ΔTm [3]: 6.1 °C
- Tm [4]: 68.9 °C
- ΔTm [5]: 12.9 °C
- ΔTm [6]: 3.2 °C
- Tm [7]: 62.2 °C
- Tm [8]: 65.1 °C
- Tm [9]: 71.9 °C
